Measured values from patent publication US11498928B2, “Macrocyclic spiroethers as Mcl-1 inhibitors” (ASCENTAGE PHARMA (SUZHOU) CO., LTD., priority 2019, dated 2022).
pIC50: −log10 of the molar value.

Columns and labels:
[1] = target: T1, Mcl-1 protein (residues 171-323) (Homo sapiens, UniProt Q07820); assay: Inhibition of Mcl-1 by fluorescence polarization (FP) competitive binding assay with FAM-Bid tracer; settings: 2 nM FAM-Bid, 20 nM Mcl-1, 30 min
T1 construct: Tag-free Mcl-1 protein (residues 171-323) was used in the FP assay
How it was run: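 Tag-free Mcl-1 (20 nM) with 2 nM FAM-Bid peptide in PBS, 0.01% BGG, 0.01% Triton X-100, 5% DMSO, 30 min at room temperature. FP read at Ex 485/Em 528 nm. IC50 from 10-point curves normalised to DMSO and no-protein controls.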

NCI-H929 cells = assay: Cell viability assay (NCI-H929 cells), CCK-8; type: cell-based; settings: 5% FBS
How it was run: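 NCI-H929 cells from ATCC were seeded at 20000 cells/well in 95 μL of culture medium in 96-well plates and grown for 4 hrs. Compounds, serially diluted in DMSO and further diluted in medium, were added as 5 μL, and cells were incubated for 24 hrs at 37° C. with 5% CO2. Viability was measured with CCK-8.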

OPM-2 cells = assay: Cell viability assay (OPM-2 cells), CCK-8; type: cell-based; settings: 5% FBS
How it was run: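 OPM-2 myeloma cells (20000/well) exposed to serially diluted compound for 24 h at 37 °C, 5% CO2, then incubated 4 h with CCK-8 and read at 450 nm. Readings normalized to vehicle; IC50 from nonlinear regression.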

T1 sequence (Q07820 171-323): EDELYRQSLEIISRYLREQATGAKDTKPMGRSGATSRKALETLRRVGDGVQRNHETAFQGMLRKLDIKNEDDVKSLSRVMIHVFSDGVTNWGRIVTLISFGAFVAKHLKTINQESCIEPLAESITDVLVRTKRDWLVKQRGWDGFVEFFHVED

SMILES	pIC50 [1]	pIC50 (NCI-H929 cells; Homo sapiens, NCI-H929, 24 h)	pIC50 (OPM-2 cells; Homo sapiens, OPM-2, 24 h)	pIC50 (NCI-H929 cells; 24 h)	pIC50 (OPM-2 cells; 24 h)
CO[C@H]1C2CC(C2)[C@H](C)N(C)S(=O)(=O)NC(=O)c2ccc3c(c2)N(C[C@@H]2CC[C@H]21)C[C@@]1(CCCc2cc(Cl)ccc21)CO3 [Cpd. No. 28, (1S,12′S,16′S,16a′R,18a′R)-6-chloro-16′-methoxy-11′,12′-dimethyl-3,4,12′,13′,14′,15′,16′,16a′,17′,18′,18a′,19′-dodecahydro-1′H,2H,3′H,11′H-spiro[naphthalene-1,2′-[5,7]etheno[13,15]methanocyclobuta[i][1,4]oxazepino[3,4-f][1]thia[2,7,16]triazacyclohexadecin]-8′(9′H)-one 10′,10′-dioxide]	7.85	5.89	5.82	–	–
COC1CCN(CCO[C@H]2C3=C[C@@H](C3)[C@H](C)[C@@H](C)S(=O)(=O)NC(=O)c3ccc4c(c3)N(C[C@@H]3CC[C@H]32)C[C@@]2(CCCc3c2ccc(Cl)c3F)CO4)CC1 [compound 75, (1S,11′R,12′S,13′R,16′R,16a′R,18a′R,E)-6-chloro-5-fluoro-16′-(2-(4-methoxypiperidin-1-yl)ethoxy)-11′,12′-dimethyl-3,4,12′,13′,16′,16a′,17′,18′,18a′,19′-decahydro-1′H,2H,3′H,11′H-spiro[naphthalene-1,2′-[5,7]etheno[13,15]methanocyclobuta[i][1,4]oxazepino[3,4-f][1]thia[2,7]diazacyclohexadecin]-8′(9′H)-one 10′,10′-dioxide]	7.44	7.29	7.39	–	–
C[C@@H]1[C@@H](C)S(=O)(=O)NC(=O)c2ccc3c(c2)N(C[C@@H]2CC[C@H]2[C@@H](OCCN2CCNC(=O)C2)C2=C[C@H]1C2)C[C@@]1(CCCc2c1ccc(Cl)c2F)CO3 [compound 85, (1S,11′R,12′S,13′R,16′R,16a′R,18a′R,E)-6-chloro-5-fluoro-11′,12′-dimethyl-16′-(2-(3-oxopiperazin-1-yl)ethoxy)-3,4,12′,13′,16′,16a′,17′,18′,18a′,19′-decahydro-1′H,2H,3′H, 11′H-spiro[naphthalene-1,2′-[5,7]etheno[13,15]methanocyclobuta[i][1,4]oxazepino[3,4-f][1]thia[2,7]diazacyclohexadecin]-8′(9′H)-one 10′,10′-dioxide]	7.70	7.14	6.91	–	–
CC[C@@H]1CS(=O)(=O)NC(=O)c2ccc3c(c2)N(C[C@@H]2CC[C@H]2[C@@H](OC)C2=CC1C2)C[C@@]1(CCCc2cc(Cl)ccc21)CO3 (single isomer, unassigned) [Cpd. No. 10 (Isomer 1)]	8.31	–	–	5.77	5.60
CO[C@@]1(CN2CCN3CCOC[C@@H]3C2)C2=C[C@@H](C2)[C@H](C)[C@@H](C)S(=O)(=O)NC(=O)c2ccc3c(n2)N(C[C@@H]2CC[C@H]21)C[C@@]1(CCCc2c1ccc(Cl)c2F)CO3 [compound 54, (1S,11′R,12′S,13′R,16′R,16a′R,18a′R,E)-6-chloro-5-fluoro-16′-(((S)-hexahydropyrazino[2,1-c][1,4]oxazin-8(1H)-yl)methyl)-16′-methoxy-11′,12′-dimethyl-3,4,12′,13′,16′,16a′,17′,18′,18a′,19′-decahydro-1′H,2H,3′H, 11′H-spiro[naphthalene-1,2′-[5,7]etheno[13,15]methanocyclobuta[i][1,4]oxazepino[3,4-f][1]thia[2,5,7]triazacyclohexadecin]-8′(9′H)-one 10′,10′-dioxide]	7.82	8.31	7.25	–	–
CO[C@@H]1C2=CC(C2)[C@H](C)N(C)S(=O)(=O)NC(=O)c2ccc3c(c2)N(C[C@@H]2CC[C@H]21)C[C@@]1(CCCc2cc(Cl)ccc21)CO3 (single isomer, unassigned) [27 (isomer 1)]	7.89	–	–	5.80	5.84
C[C@@H]1[C@@H](C)S(=O)(=O)NC(=O)c2ccc3c(c2)N(C[C@@H]2CC[C@H]2[C@@H](OCCN2CCN(C4CCOCC4)CC2)C2=C[C@H]1C2)C[C@@]1(CCCc2c1ccc(Cl)c2F)CO3 [compound 89, (1S,11′R,12′S,13′R,16′R,16a′R,18a′R)-6-chloro-5-fluoro-11′,12′-dimethyl-16′-(2-(4-(tetrahydro-2H-pyran-4-yl)piperazin-1-yl)ethoxy)-3,4,12′,13′,16′,16a′,17′,18′,18a′,19′-decahydro-1′H,2H,3′H, 11′H-spiro[naphthalene-1,2′-[5,7]etheno[13,15]methanocyclobuta[i][1,4]oxazepino[3,4-f][1]thia[2,7]diazacyclohexadecin]-8′(9′H)-one 10′,10′-dioxide]	7.96	8.12	7.28	–	–
CO[C@H]1C2=CC(C)(C2)[C@H](C)CS(=O)(=O)NC(=O)c2ccc3c(c2)N(C[C@@H]2CC[C@H]21)C[C@@]1(CCCc2cc(Cl)ccc21)CO3 (single isomer, unassigned) [Cpd. No. 18 (Isomer 1)]	8.38	–	–	7.43	7.60
C[C@@H]1[C@@H](C)S(=O)(=O)NC(=O)c2ccc3c(c2)N(C[C@@H]2CC[C@H]2[C@@H](OCCS(C)(=O)=O)C2=C[C@H]1C2)C[C@@]1(CCCc2c1ccc(Cl)c2F)CO3 [compound 61, (1S,11′R,12′S,13′R,16′R,16a′R,18a′R,E)-6-chloro-5-fluoro-11′,12′-dimethyl-16′-(2-(methylsulfonyl)ethoxy)-3,4,12′,13′,16′,16a′,17′,18′,18a′,19′-decahydro-1′H,2H,3′H,11′H-spiro[naphthalene-1,2′-[5,7]etheno[13,15]methanocyclobuta[i][1,4]oxazepino[3,4-f][1]thia[2,7]diazacyclohexadecin]-8′(9′H)-one 10′,10′-dioxide]	8.00	7.55	7.12	–	–
CO[C@H]1C2=CC(C2)[C@H](C)N(C)S(=O)(=O)NC(=O)c2ccc3c(c2)N(C[C@@H]2CC[C@H]21)C[C@@]1(CCCc2cc(Cl)ccc21)CO3 (single isomer, unassigned) [26 (isomer 1)]	7.85	–	–	6.80	6.39
CO[C@@]1(CN2CCOCC2)C2=C[C@@H](C2)[C@H](C)[C@@H](C)S(=O)(=O)NC(=O)c2ccc3c(c2)N(C[C@@H]2CC[C@H]21)C[C@@]1(CCCc2c1ccc(Cl)c2F)CO3 [compound 33, (1S,11′R,12′S,13′R,16′R,16a′R,18a′R,E)-6-chloro-5-fluoro-16′-methoxy-11′,12′-dimethyl-16′-(morpholinomethyl)-3,4,12′,13′,16′,16a′,17′,18′,18a′,19′-decahydro-1′H,2H,3′H,11′H-spiro[naphthalene-1,2′-[5,7]etheno[13,15]methanocyclobuta[i][1,4]oxazepino[3,4-f][1]thia[2,7]diazacyclohexadecin]-8′(9′H)-one 10′,10′-dioxide]	7.89	7.44	7.28	–	–
CC(=O)N1CCN(CCO[C@H]2C3=C[C@@H](C3)[C@H](C)[C@@H](C)S(=O)(=O)NC(=O)c3ccc4c(c3)N(C[C@@H]3CC[C@H]32)C[C@@]2(CCCc3c2ccc(Cl)c3F)CO4)CC1 [compound 87, (1S,11′R,12′S,13′R,16′R,16a′R,18a′R,E)-16′-(2-(4-acetylpiperazin-1-yl)ethoxy)-6-chloro-5-fluoro-11′,12′-dimethyl-3,4,12′,13′,16′,16a′,17′,18′,18a′,19′-decahydro-1′H,2H,3′H, 11′H-spiro[naphthalene-1,2′-[5,7]etheno[13,15]methanocyclobuta[i][1,4]oxazepino[3,4-f][1]thia[2,7]diazacyclohexadecin]-8′(9′H)-one 10′,10′-dioxide]	8.07	7.57	6.43	–	–
CCOC(=O)CO[C@H]1C2=C[C@@H](C2)[C@H](C)[C@@H](C)S(=O)(=O)NC(=O)c2ccc3c(c2)N(C[C@@H]2CC[C@H]21)C[C@@]1(CCCc2c1ccc(Cl)c2F)CO3 [compound 72, ethyl 2-(((1S,11′R,12′S,13′R,16′R,16a′R,18a′R,E)-6-chloro-5-fluoro-11′,12′-dimethyl-10′,10′-dioxido-8′-oxo-3,4,8′,9′,12′,13′,16′,16a′,17′,18′,18a′,19′-dodecahydro-1′H,2H,3′H,11′H-spiro[naphthalene-1,2′-[5,7]etheno[13,15]methanocyclobuta[i][1,4]oxazepino[3,4-f][1]thia[2,7]diazacyclohexadecin]-16′-yl)oxy)acetate]	7.85	7.15	7.05	–	–
C[C@@H]1[C@@H](C)S(=O)(=O)NC(=O)c2ccc3c(c2)N(C[C@@H]2CC[C@H]2[C@@H](OCCN2CCN(S(C)(=O)=O)CC2)C2=C[C@H]1C2)C[C@@]1(CCCc2c1ccc(Cl)c2F)CO3 [compound 76, (1S,11′R,12′5,13′R,16′R,16a′R,18a′R,E)-6-chloro-5-fluoro-11′,12′-dimethyl-16′-(2-(4-(methylsulfonyl)piperazin-1-yl)ethoxy)-3,4,12′,13′,16′,16a′,17′,18′,18a′,19′-decahydro-1′H,2H,3′H,11′H-spiro[naphthalene-1,2′-[5,7]etheno[13,15]methanocyclobuta[i][1,4]oxazepino[3,4-f][1]thia[2,7]diazacyclohexadecin]-8′(9′H)-one 10′,10′-dioxide]	7.68	7.43	6.69	–	–
CO[C@H]1C2=CC(CCS(=O)(=O)NC(=O)c3ccc4c(c3)N(C[C@@H]3CC[C@H]31)C[C@@]1(CCCc3cc(Cl)ccc31)CO4)C2 (single isomer, unassigned) [Cpd. No. 1 (Isomer 1)]	8.17	–	–	6.44	6.26
